Source: ChEMBL document CHEMBL3526033, “Identification of human liver cytochrome P450 enzymes involved in the metabolism of SCH 530348 (Vorapaxar), a potent oral thrombin protease-activated receptor 1 antagonist” (Drug Metab Dispos, 2011)

Experiments:
Format in all cases: ADME
[1] = biological target: Cytochrome P450 2A6 (Homo sapiens, UniProt P11509); test: Activity of human recombinant CYP2A6 assessed as enzyme-mediated drug metabolism treated with 25 uM vorapaxar after 120 mins by LC-MS/MS analysis in presence of NADPH; conditions: 2 h
[2] = biological target: T1, Cytochrome P450 2B6 (Homo sapiens, UniProt P20813); test: Activity of human recombinant CYP2B6 assessed as enzyme-mediated drug metabolism treated with 25 uM vorapaxar after 120 mins by LC-MS/MS analysis in presence of NADPH; conditions: 2 h
T1 sequence (P20813 whole entry): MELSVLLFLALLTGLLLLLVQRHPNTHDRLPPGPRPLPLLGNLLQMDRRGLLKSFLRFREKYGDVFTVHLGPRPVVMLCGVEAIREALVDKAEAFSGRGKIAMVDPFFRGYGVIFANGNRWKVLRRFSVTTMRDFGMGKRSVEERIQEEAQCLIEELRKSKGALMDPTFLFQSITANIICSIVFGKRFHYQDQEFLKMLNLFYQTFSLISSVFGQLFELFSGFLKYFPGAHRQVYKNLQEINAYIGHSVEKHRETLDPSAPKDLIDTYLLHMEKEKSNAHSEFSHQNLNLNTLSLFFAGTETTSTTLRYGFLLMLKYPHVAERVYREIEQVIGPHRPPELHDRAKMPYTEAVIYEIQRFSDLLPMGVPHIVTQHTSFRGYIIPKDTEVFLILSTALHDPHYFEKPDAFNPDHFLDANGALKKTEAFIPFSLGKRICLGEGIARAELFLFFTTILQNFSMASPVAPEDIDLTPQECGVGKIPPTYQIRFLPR

[3] = biological target: T2, Cytochrome P450 3A4 (Homo sapiens, UniProt P08684); test: Drug metabolism in human liver microsomes assessed as CYP3A4-mediated (3R,3aS,4S,4aR,7R,8aR,9aR)-7-amino-4-((E)-2-(5-(3-fluorophenyl)pyridin-2-yl)vinyl)-3-methyldecahydronaphtho[2,3-c]furan-1(3H)-one formation at 25 uM after 120 mins by LC-MS/MS analysis; conditions: 2 h
[4] = biological target: T3, Cytochrome P450 1A1 (Homo sapiens, UniProt P04798); test: Activity of human recombinant CYP1A1 assessed as enzyme-mediated drug metabolism treated with 25 uM vorapaxar after 120 mins by LC-MS/MS analysis in presence of NADPH; conditions: 2 h
T3 sequence (P04798 whole entry): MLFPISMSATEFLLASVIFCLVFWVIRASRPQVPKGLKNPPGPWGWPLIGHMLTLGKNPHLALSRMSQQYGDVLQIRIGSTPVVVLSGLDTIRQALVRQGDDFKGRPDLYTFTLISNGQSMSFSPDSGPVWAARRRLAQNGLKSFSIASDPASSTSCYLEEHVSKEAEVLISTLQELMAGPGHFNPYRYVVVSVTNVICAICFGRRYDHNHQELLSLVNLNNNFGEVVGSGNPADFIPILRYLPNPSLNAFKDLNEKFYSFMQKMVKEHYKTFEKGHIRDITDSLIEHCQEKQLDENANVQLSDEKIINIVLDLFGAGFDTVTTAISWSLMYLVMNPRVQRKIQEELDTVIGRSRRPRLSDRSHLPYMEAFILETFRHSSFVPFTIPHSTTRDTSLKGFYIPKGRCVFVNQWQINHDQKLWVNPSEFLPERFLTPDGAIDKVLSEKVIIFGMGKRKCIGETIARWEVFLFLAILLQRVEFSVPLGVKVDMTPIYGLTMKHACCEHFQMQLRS

[5] = biological target: CYP2C9 (Homo sapiens, UniProt P11712); test: Activity of human recombinant CYP2C9 assessed as enzyme-mediated drug metabolism at 10 uM after 120 mins by LC-MS/MS analysis in presence of NADPH; conditions: read-out: Compound recovery
[6] = biological target: T2, Cytochrome P450 3A4; test: Drug metabolism assessed as human recombinant CYP3A4-mediated 2-hydroxyethyl (1R,3aR,4aR,6R,8aR,9S,9aS)-9-((E)-2-(5-(3-fluorophenyl)pyridin-2-yl)vinyl)-1-methyl-3-oxododecahydronaphtho[2,3-c]furan-6-ylcarbamate formation at 25 uM after 120 mins by LC-MS/MS analysis in presence of ketoconazole; conditions: recombinant enzyme, 2 h
[7] = biological target: T2, Cytochrome P450 3A4; test: Activity of human recombinant CYP3A4 assessed as enzyme-mediated ((4aR,6R)-9-{2-[(1R,4S)-5-((S)-3-Fluoro-phenyl)-pyridin-2-yl]-vinyl}-1-methyl-3-oxo-dodecahydro-naphtho[2,3-c]furan-6-yl)-carbamic acid(R)-2-hydroxy-ethyl ester formation at 10 uM after 120 mins by LC-MS/MS analysis in presence of astemizole; conditions: 2 h
[8] = biological target: T4, Cytochrome P450 1A2 (Homo sapiens, UniProt P05177); test: Activity of human recombinant CYP1A2 assessed as enzyme-mediated 2-hydroxyethyl (1R,3aR,4aR,6R,8aR,9S,9aS)-9-((E)-2-(5-(3-fluorophenyl)pyridin-2-yl)vinyl)-1-methyl-3-oxododecahydronaphtho[2,3-c]furan-6-ylcarbamate formation at 25 uM after 120 mins by LC-MS/MS analysis in presence of NADPH; conditions: 2 h
T4 sequence (P05177 whole entry): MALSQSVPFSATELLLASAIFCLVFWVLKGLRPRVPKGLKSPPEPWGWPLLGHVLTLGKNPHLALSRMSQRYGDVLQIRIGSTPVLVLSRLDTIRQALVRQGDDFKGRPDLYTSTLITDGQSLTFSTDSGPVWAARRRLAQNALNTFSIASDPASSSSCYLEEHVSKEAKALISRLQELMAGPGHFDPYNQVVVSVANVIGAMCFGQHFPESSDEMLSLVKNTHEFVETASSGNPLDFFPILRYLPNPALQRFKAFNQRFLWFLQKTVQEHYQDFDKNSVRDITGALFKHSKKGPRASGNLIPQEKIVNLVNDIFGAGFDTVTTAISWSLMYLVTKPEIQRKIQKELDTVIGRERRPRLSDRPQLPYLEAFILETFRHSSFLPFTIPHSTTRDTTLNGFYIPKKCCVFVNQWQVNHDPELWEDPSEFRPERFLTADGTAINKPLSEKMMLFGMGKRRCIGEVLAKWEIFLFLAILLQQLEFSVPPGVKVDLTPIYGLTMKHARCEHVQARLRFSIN

[9] = biological target: T2, Cytochrome P450 3A4; test: Activity of human recombinant CYP3A4 assessed as enzyme-mediated drug metabolism at 10 uM after 120 mins by LC-MS/MS analysis; conditions: 2 h

T2 sequence (P08684 whole entry): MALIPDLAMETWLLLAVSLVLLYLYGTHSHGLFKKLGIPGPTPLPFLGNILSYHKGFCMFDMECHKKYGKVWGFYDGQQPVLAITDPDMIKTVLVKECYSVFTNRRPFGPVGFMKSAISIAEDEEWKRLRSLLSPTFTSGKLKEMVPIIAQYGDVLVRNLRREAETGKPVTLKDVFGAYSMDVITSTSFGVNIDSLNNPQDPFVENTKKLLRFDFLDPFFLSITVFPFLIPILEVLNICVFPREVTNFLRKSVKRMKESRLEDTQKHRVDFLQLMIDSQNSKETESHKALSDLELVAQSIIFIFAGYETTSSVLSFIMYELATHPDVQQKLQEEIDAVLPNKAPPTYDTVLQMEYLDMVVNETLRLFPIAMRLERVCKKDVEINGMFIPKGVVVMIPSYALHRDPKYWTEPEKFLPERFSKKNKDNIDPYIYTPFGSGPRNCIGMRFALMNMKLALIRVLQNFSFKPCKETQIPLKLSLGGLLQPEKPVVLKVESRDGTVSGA
Chain of CYP2C9 (P11712 whole entry): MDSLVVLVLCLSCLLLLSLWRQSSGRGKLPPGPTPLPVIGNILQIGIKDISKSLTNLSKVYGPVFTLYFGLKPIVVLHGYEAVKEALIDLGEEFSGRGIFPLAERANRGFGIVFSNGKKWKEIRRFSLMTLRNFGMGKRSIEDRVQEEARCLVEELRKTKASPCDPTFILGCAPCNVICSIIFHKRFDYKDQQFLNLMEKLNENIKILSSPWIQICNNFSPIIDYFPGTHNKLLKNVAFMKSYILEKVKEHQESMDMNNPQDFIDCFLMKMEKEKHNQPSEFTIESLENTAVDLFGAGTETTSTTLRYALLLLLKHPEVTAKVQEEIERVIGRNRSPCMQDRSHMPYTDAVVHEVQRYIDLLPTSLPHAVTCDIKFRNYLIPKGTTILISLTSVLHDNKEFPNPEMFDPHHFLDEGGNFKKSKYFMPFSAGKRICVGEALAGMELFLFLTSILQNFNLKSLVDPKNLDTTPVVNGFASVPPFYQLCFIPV
Chain of Cytochrome P450 2A6 (P11509 whole entry): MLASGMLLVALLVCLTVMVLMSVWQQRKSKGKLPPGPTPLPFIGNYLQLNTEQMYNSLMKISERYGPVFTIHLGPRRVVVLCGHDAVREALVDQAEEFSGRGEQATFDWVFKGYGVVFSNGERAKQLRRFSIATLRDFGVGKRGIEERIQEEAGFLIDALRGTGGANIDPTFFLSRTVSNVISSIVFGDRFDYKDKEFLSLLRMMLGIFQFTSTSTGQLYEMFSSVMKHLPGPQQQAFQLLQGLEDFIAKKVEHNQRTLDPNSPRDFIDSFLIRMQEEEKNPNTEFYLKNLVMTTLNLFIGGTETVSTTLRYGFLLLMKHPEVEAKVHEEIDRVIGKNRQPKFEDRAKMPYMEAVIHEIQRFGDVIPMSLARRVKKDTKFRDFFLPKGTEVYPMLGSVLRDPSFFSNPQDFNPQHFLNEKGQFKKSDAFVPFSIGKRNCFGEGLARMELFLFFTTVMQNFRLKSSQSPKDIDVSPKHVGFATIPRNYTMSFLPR

C[C@H]1OC(=O)[C@@H]2C[C@@H]3C[C@H](NC(=O)OCCO)CC[C@H]3[C@H](/C=C/c3ccc(-c4cccc(F)c4)cn3)[C@H]12
Drug metabolism [1]: metabolite_detected | Drug metabolism [2]: metabolite_detected | Drug metabolism [3]: metabolite_detected | Drug metabolism [4]: metabolite_detected

CCOC(=O)N[C@@H]1CC[C@@H]2[C@@H](C1)C[C@H]1C(=O)O[C@H](C)[C@H]1[C@H]2/C=C/c1ccc(-c2cccc(F)c2)cn1 [VORAPAXAR]
remaining at 2 h, 10 µM [5]: 98.8% | Drug metabolism [6]: metabolite_not_detected | inhibition (INH) [7]: 76%

CCOC(=O)N[C@@H]1CC[C@@H]2[C@@H](C1)C[C@H]1C(=O)O[C@H](C)[C@H]1[C@H]2/C=[14CH]/c1ccc(-c2cccc(F)c2)cn1
Drug metabolism [8]: metabolite_detected | Drug metabolism [9]: metabolite_not_detected
